Reference: article PMC6940986, “Structural Insights into the Intracellular Region of the Human Magnesium Transport Mediator CNNM4” (International Journal of Molecular Sciences, 2019)

Molecular target: T1, hCNNM4BAT (CNNM4BAT) (Homo sapiens, UniProt Q6P4Q7)
T1 construct: gene CNNM4; Bateman module (CBS1-CBS2) with helix H0; for NMR U-15N, N-terminal His6-V5-TEV site tag (pET151-D/TOPO), tag cleavage not described; E. coli BL21 CodonPlus; homodimer (CBS module)
Experiment: 2D […]-HSQC NMR titration; 1H STD NMR
Type: binding
Settings: estimated; no Mg2+ added; 100 mM HEPES, pH 7.4 preset (7.2 in results), 100 mM NaCl, 298 K; 100 uM protein

T1 sequence (Q6P4Q7 359-511): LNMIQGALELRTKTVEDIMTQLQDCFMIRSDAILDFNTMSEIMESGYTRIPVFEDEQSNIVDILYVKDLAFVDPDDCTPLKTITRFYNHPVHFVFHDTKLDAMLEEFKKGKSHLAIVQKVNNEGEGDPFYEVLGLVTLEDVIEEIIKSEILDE

In the case of `Nc1ncnc2c1ncn2[C@@H]1O[C@H](COP(=O)(O)OP(=O)(O)NP(=O)(O)O)[C@@H](O)[C@H]1O` [ADPNP], the KD is reported as ~ 10^−2 to 10^−3 M.
